In assay [1] the test system is autologous responder cells (monocyte-depleted PBMC) from HLA-A*0201-negative donors. Put plainly: Induction of pentamer positive CD8+ T cells by peptide-pulsed HLA-A*0201-transfected moDC (Example 8). Format: cell-based, human. The settings on record: for Day 12 % pent+/CD8+: day 12 of co-culture; for Day 19 % pent+/CD8+: day 19 of co-culture, after restimulation; for Day 12 Donors / Day 19 Donors: donors with positive response / donors tested. The method, then:
MoDC transfected with HLA-A*0201 mRNA were harvested 18 hours after transfection and resuspended in 1-2 ml of serum-free DC-medium containing 50 μg/ml peptide, such as MART-1 or peptide #19. The cells were incubated at 37° C., 5% CO2 for 4 hours, then washed once in serum-free RPMI.
Stimulator and responder cells were seeded at a stimulator to responder (S:R) ratio of 1:10, with 3.0×10^6 responders per well in serum-free DC medium containing 10 ng/ml IL-7 (PeproTech EC Ltd.), 50 pg/ml IL-12 (PeproTech EC Ltd.), and PPD at 1 μg/ml.
On day 12 the responder cells were harvested and analyzed for the presence of pentamer positive cells. The cells were either sorted or restimulated.
Restimulation was done with autologous EBV-LCL transfected with HLA-A*0201 mRNA 12-24 hours prior to stimulation, harvested and resuspended in 1-2 ml of serum-free X-Vivo 20 (Cambrex) containing the same peptide as added on day 0 at 20 μg/ml, and incubated for 4 hours at 37° C., 5% CO2. Following incubation, the EBV-LCL were washed once in serum-free RPMI.
From day 12 of co-culture with stimulator cells, the responders were harvested, counted and analyzed for the presence of pentamer positive cells weekly. The responder cells were either restimulated, as described above, or the pentamer positive cells were sorted and expanded as described below.
Monocyte-derived dendritic cells (moDC) from HLA-A*0201-negative donors were transfected with HLA-A*0201 mRNA after maturation. 18-24 hours post-transfection the cells were pulsed with the peptides indicated in Table 2 for four hours, before co-culturing them with autologous responder cells (monocyte-depleted PBMC). On day 12 and day 19 and in some cases at day 26 of co-culture, the cells were harvested, stained with relevant peptide-MHC-pentamer and analyzed by flow cytometry. The percentage of pentamer positive cells was calculated by dividing the number of pentamer positive cells by the number of CD8+ cells. On day 12 and day 19, the cells were restimulated with autologous EBV-cells that were transfected with HLA-A*0201 mRNA and loaded for four hours with the relevant peptides indicated in Table 2.

The target of assay [2] is HLA-A*0201 (Homo sapiens, UniProt P04439, /I218V/L300P/L318F/N151K/N90K/P208A/P217A/Q86G/Q94H/R138H/R169H/T345S). Description: REVEAL MHC molecule binding assay (ProImmune). The settings on record: value of the unmodified old peptide listed beside the modified peptide ID.
The target in assay [3] is HLA-A*0201 (Homo sapiens, UniProt P04439, D140Y/D185E/D98H/E176V/E277Q/G131W/G231S/I119V/I121R/I166T/I218V/L300P/L318F/N151K/N90K/P208A/P217A/Q86G/Q94H/R138H/R169H/T345S). Description: REVEAL MHC molecule binding assay (ProImmune).
For assay [4], the system named is CD8+ T cells from HLA-A*0201 negative donors. Description: Induction of allo-restricted pentamer+ T cells by peptide-pulsed A2-moDC (Example 9). Format: cell-based, human. The settings on record: three donors respectively, 19 days of culture. The method, then: Mature moDCs were harvested 18 hours after transfection with HLA-A*0201 mRNA, pulsed with 50 μg/ml MART-1 peptide or CD339-17 peptide for 4 hours, washed and co-cultured with thawed, non-adherent cells (see above) at a ratio of 1:10 in CellGro DC medium in the presence of 10 ng/ml IL-7 (PeproTech EC Ltd.) and 50 pg/ml IL-12 (PeproTech EC Ltd.), with the addition of 10 ng/ml IL-7 on day 7. Cells were harvested day 12 and analyzed for the presence of pentamer^+ cells. The co-cultures stimulated with the CD339-17 peptide were re-stimulated on day 12 with HLA-A*0201 transfected autologous EBV-LCL for an additional 7 days before harvest.
Co-cultured cells were harvested and stained with A2/MART-1 pentamer or A2/CD33 pentamer, fluorotag and anti-CD8 according to the manufacturers' instructions. Sorting was performed by flow cytometry (FACS Aria Cell sorter, BD Biosciences, San Jose, Calif.) or by magnetic beads to a purity of >98%. Pentamer^+ cells labelled with fluorotag conjugated to PE were isolated using MACS Anti-PE MicroBeads (Miltenyi Biotec, Bergisch Gladbach, Germany) followed by separation over two subsequent MACS MS Columns (Miltenyi Biotec).

The subject of assay [5] is myelo-monocytic leukemia cell line THP-1. Put plainly: IFN-γ production and CD107a/b mobilization, peptide-loaded targets. Format: cell-based, human. The conditions noted are these: THP-1 loaded with peptide and washed, p=0.016, n=4.
For assay [6], the system named is CD8+ T cells from HLA-A*0201 negative donors. Description: Induction of A2/CD20 pentamer+ T cells by HLA-A*0201-transfected peptide-pulsed moDC (Example 10). Format: cell-based, human. The method, then:
Mature moDCs were harvested 18 hours after transfection with HLA-A*0201 mRNA (HLA-A*0201 negative donors), or left untransfected (HLA-A*0201 positive donors), pulsed with 50 μg/ml peptide for 4 hours, irradiated (25Gy), washed and co-cultured with thawed, autologous, non-adherent cells at a ratio of 1:10 in CeliGro DC medium in the presence of 10 ng/ml IL-7 (PeproTech EC Ltd.), 50 pg/ml IL-12 (PeproTech EC Ltd.) and 1 μg/ml purified protein derivative-1 (gift from Prof. L. Sollid's lab, Rikshospitalet, Oslo) with the addition of 10 ng/ml IL-7 on day 7. Cells were analyzed for the presence of pentamer^+ cells, harvested and re-stimulated on day 12 with HLA-A*0201-transfected, peptide-pulsed autologous EBV-LCL. Cells were co-cultured in X-vivo 20 (Lonza, Verviers, Belgium) with 5% pooled human serum, 10 U/ml IL-2 (R&D systems, Minneapolis, Minn.) was added on day 14 and the cells harvested for cell sorting day 19.
Harvested cells were stained with A2/CD20 pentamer, fluorotag and anti-CD8 according to the manufacturers' instructions. Sorting was performed by flow cytometry (FACS Aria Cell sorter, BD Biosciences, San Jose, Calif.) or by magnetic beads to a purity of >98%. Pentamer^+ cells labelled with fluorotag conjugated to PE were isolated using MACS anti-PE MicroBeads (Miltenyi Biotec, Bergisch Gladbach, Germany) followed by separation over two subsequent MACS MS Columns (Miltenyi Biotec).

[7] abbreviates: level of binding relative to pass/fail control binder designated 100%.

Values joined by “and” are separate entries in the source; they are usually repeats but may differ in a detail not shown here. Equal values may be shown once. Read-outs that look alike come from different tables or passages of the source.

Consider “SVDPRIANV [82] (homo sapiens) [Peptide 82, from MPO]”, for which, in assay [1], the “Day 12 % pent+/CD8+” value is 0.04%, the “Day 19 % pent+/CD8+” value is 0.19%, the “Day 12 Donors” value is 1/2 and the “Day 19 Donors” value was 1/2. Further, the “% Pass/fail (Old Peptide)” value in the assay with HLA-A*0201 [2] is on record as 295.4%. Further, in the assay with HLA-A*0201 [3] (setting [7]), the “% Pass/fail control” value is reported as 295.4%.
Turning to “CD339-17: peptide derived from the CD33 antigen, amino acid sequence 9-17, HLA-A*0201-binding candidate (LLWAGALAM; UniProt P20138 9-17, looked up, fragment)”, the “frequencies of pentamer+ cells” value in assay [4] is 0.13% and 0.32% and 0.55%.
As to “SLFLGILSV (homo sapiens) [Peptide 19, from CD20]”, in assay [5], the “peptide concentration at which increase in frequency of activated T cells reached statistical significance” value was 100 nM. Further, in assay [6] (day 12), the “donors with positive cells” value is 5 of 6, the “median frequency of pentamer positive cells of CD8+ T cells” value is on record as 0.19% and the “range of frequency of pentamer positive cells of CD8+ T cells” value is 0-0.31%. In assay [6] (day 19), the “donors with pentamer positive cells” value was 6/6. In assay [6] (day 19, after re-stimulation), the “median frequency of pentamer positive cells of CD8+ T cells” value is reported as 0.57% and the “range of frequency of pentamer positive cells of CD8+ T cells” value is listed as 0.12-2.79%.
“SVDPRIANV [139] (SLDPRIANV; homo sapiens) [Peptide 139, modified peptide, MPO]”: the “% Pass/fail control” value in the assay with HLA-A*0201 [3] (setting [7]) turned out to be 231.5%.
For the substance FLYGVILTV (homo sapiens) [Peptide 131], the “% Pass/fail control” value with HLA-A*0201 [3] was found to be 257.0%.
Regarding “ILFAFVSSV (homo sapiens) [Peptide 25, from FLT3]”, in assay [1], the “Day 12 % pent+/CD8+” value amounted to 0%, the “Day 19 % pent+/CD8+” value is recorded as 0%, the “Day 12 Donors” value was 1/2 and the “Day 19 Donors” value was 0/2.
As for “LVAPRFLEV (homo sapiens) [Peptide 85, from CD50]”, in assay [1], the “Day 12 % pent+/CD8+” value is 0.13%, the “Day 19 % pent+/CD8+” value is listed as 0.30%, the “Day 12 Donors” value is given as 1/4 and the “Day 19 Donors” value was 2/5.
Regarding “KLMSPKLYV (homo sapiens) [Peptide 55, from CD19]”, in assay [1], the “Day 12 % pent+/CD8+” value is on record as 0.03%, the “Day 19 % pent+/CD8+” value is 0.05%, the “Day 12 Donors” value is recorded as 1/2 and the “Day 19 Donors” value was 1/2.
Regarding “VLWHWLLRT (homo sapiens) [Peptide 105, from CD19]”, in assay [1], the “Day 12 % pent+/CD8+” value was 0%, the “Day 19 % pent+/CD8+” value is on record as 0.19%, the “Day 12 Donors” value is 0/2 and the “Day 19 Donors” value is 4/6.
“LLQRPGLQL (homo sapiens) [Peptide 126, from CD64]”: in assay [1], the “Day 12 % pent+/CD8+” value is on record as 0.01%, the “Day 19 % pent+/CD8+” value is 0.06%, the “Day 12 Donors” value is reported as 1/2 and the “Day 19 Donors” value is given as 1/2.
With “LLLTISLLV (homo sapiens) [Peptide 81, from CD52]”, in assay [1], the “Day 12 % pent+/CD8+” value is reported as 0%, the “Day 19 % pent+/CD8+” value worked out at 0.03%, the “Day 12 Donors” value was 0/2 and the “Day 19 Donors” value was 1/2.
As for “FLLLTISLL (homo sapiens) [Peptide 88, from CD52]”, in assay [1], the “Day 12 % pent+/CD8+” value was found to be 0%; the “Day 19 % pent+/CD8+” value was 0.08% and 0%; the “Day 12 Donors” value is 0/2 and 0/3; the “Day 19 Donors” value was 2/3 and 0/2.
Take “ALAVISFLL (homo sapiens) [Peptide 114, from CD7]”: in assay [1], the “Day 12 % pent+/CD8+” value is recorded as 0%, the “Day 19 % pent+/CD8+” value worked out at 0%, the “Day 12 Donors” value is reported as 0/2 and the “Day 19 Donors” value was 0/2.
Turning to “FLDCQIHRV (homo sapiens) [Peptide 7, from CD127]”, in assay [1], the “Day 12 % pent+/CD8+” value was determined as 0%, the “Day 19 % pent+/CD8+” value is 0%, the “Day 12 Donors” value is listed as 0/2 and the “Day 19 Donors” value is reported as 0/2.

These data come from patent US20110142842A1, “POLYPEPTIDES” (Medinnova AS, priority 2007, published 2011).
